Among the data in PMC12650180, “Discovery of Drug-like Inhibitors of the Human Caf1/CNOT7 poly(A)-Selective Nuclease Using Compound Screening” (Biomolecules, 2025) are IC50 values, retold here.

A word on the IC50: it is the concentration needed to halve the response being measured.

Molecules are shown by their SMILES.

Sequence of human Caf1/CNOT7 (Q9UIV1 whole entry): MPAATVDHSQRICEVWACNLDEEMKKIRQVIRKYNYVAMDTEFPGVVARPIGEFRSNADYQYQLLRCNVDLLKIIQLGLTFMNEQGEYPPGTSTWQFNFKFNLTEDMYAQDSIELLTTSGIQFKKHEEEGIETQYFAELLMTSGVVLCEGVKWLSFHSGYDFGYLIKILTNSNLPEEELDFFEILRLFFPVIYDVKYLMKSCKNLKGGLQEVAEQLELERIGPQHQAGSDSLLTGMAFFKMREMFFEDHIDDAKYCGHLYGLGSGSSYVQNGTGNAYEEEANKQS

The assay has as its target human Caf1/CNOT7 (Homo sapiens, UniProt Q9UIV1). As to the kind of experiment: Fluorescence-based Caf1/CNOT7 nuclease activity assay (Flc-RNA substrate, TAMRA-labelled DNA probe). The class given is biochemical. The following applies: mean ± standard deviation; 0.4 μM Caf1/CNOT7, 0.1 μM Flc-RNA substrate, 15 min preincubation, 60 min at 30 °C. The procedure: Compounds (10 mM in DMSO) were stored in a dry, inert environment at −20 °C in an automated sample management system (comPOUND, TTP Labtech Technology, Melbourn, UK). After dispensing aliquots in 96-well plates, compounds were diluted to 0.5 mM in 20% DMSO/water. Aliquots ([…]; […]) were transferred to black U-well 384-well plates (Greiner Bio-One, Kremsmünster, Austria) using a multichannel pipette. Subsequent screening was carried out as described before with modifications for use with a Biomek 3000 liquid handler (Beckman Coulter, Brea, CA, USA). First, enzyme (8 μL containing 1.0 μM Caf1/CNOT7, 50 mM Tris–HCl pH 7.9, 125 mM NaCl, 5 mM MgCl2, 25% glycerol, 2.5 mM β-mercaptoethanol) was added. After mixing, the mixture was left at room temperature for 15 min before the addition of RNA substrate (8 μL; 0.25 μM Flc-RNA substrate in H2O). The composition of the final reaction mixture was: 0.4 μM Caf1/CNOT7, 0.1 μM Flc-RNA substrate, 20 mM Tris–HCl pH 7.9, 50 mM NaCl, 2 mM MgCl2, 10% glycerol, 1 mM β-mercaptoethanol, 5% DMSO, and 100 μM library compound. After incubation at 30 °C for 60 min, 20 μL probe mix (5 μM DNA probe, 1% SDS, 20 mM Tris–HCl pH 8.0, 0.5 mM EDTA) was added. Fluorescence was measured using a BioTek Synergy HT plate reader using the following filters: 485 ± 20 nm (excitation) and 528 ± 20 nm (emission). Hits were identified following data analysis in Microsoft Excel. Screening data was visualised using GraphPad Prism (version 10.4.0).
Reaction conditions and fluorescence measurements were as described above and before. Non-linear regression was carried out using GraphPad Prism 5.0. IC50 values were typically determined using three independent experiments, each containing three replicates.
To discover new inhibitors of the Caf1/CNOT7 nuclease subunit of the Ccr4–Not complex, we screened a sub-set of the Nottingham Managed Chemical Compound Collection, which contains over 83,000 synthetic compounds that are commercially available and were selected based on chemical diversity and drug-like properties. A representative sub-set of 10,880 compounds was selected and screened in duplicate in a 384-well plate format (Figure 1A). The library compounds were screened using a fluorescence-based activity assay that was developed previously. Briefly, purified Caf1/CNOT7 enzyme was pre-incubated with library compounds. This was followed by the addition of a 5′ fluorescein-labelled RNA oligonucleotide containing a stretch of nine adenosine residues at the 3′ end that served as substrate for Caf1/CNOT7. After incubation, the reaction was terminated and a 3′ TAMRA-labelled DNA probe complementary to the substrate was added. […] However, in case Caf1/CNOT7 was inhibited, the substrate remained intact, resulting in annealing of the DNA probe and quenching of fluorescence due to the close vicinity of the fluorescein and TAMRA fluorophores (Figure 1B).
Figure 3 Determination of the IC50 values of small-molecule inhibitors of Caf1/CNOT7. Compounds were preincubated with Caf1/CNOT7 for 15 min at room temperature, followed by the addition of RNA substrate. After incubation (60 min at 30 °C), reactions were stopped by the addition of SDS and a 5-fold molar excess of DNA probe. The mean values for each independent experiment were plotted (Open square, experiment 1; closed circle, experiment 2; diamond, experiment 3).
As to `Cc1ccc2nc(NC(=O)c3cc(Br)c[nH]3)sc2c1` [Compound 1], the IC50 worked out at 17.8 ± 0.1 µM.

Regarding `Cc1ccc(NC(=O)c2c[nH]nc2-c2ccc(Cl)cc2)nc1` [Compound 2], the IC50 amounted to 19.5 ± 3.4 µM.

With `CC(=O)c1c(C)[nH]c(C(=O)Nc2nnc(Cc3ccccc3)s2)c1C` [Compound 3], the IC50 was found to be 20.7 ± 0.9 µM.

For `Cc1cc(NC(=O)NC2(C(F)(F)F)Oc3ccc(Cl)cc3O2)no1` (centres unmarked) [Compound 4], the IC50 worked out at 16.8 ± 2.1 µM.

With `O=C(Cc1c[nH]c2ccccc12)OCc1ccc(F)cc1Cl` [Compound 5], the IC50 is 17.5 ± 4.2 µM.

As for `CC(NC(=O)c1ccoc1)C(=O)Nc1cc(-c2cc(Cl)cc(Cl)c2)[nH]n1` (centres unmarked) [Compound 6], the IC50 came to 19.7 ± 2.5 µM.

On to `CC(C)c1ccc(-c2nnn(CC(=O)NC(=O)NCc3ccccc3)n2)cc1` [Compound 7], for which the half-maximal inhibitory concentration (IC50) is 17.4 ± 2.7 µM.

In the case of `Cc1cccc2sc(NC(=O)CCC(=O)c3ccc(F)cc3)nc12` [Compound 8], the IC50 came out at 18.9 ± 4.3 µM.

`N#Cc1cccc(NC(=O)C(C#N)c2nc3ccccc3s2)c1` (centres unmarked) [Compound 9]: the half-maximal inhibitory concentration (IC50) amounted to 18.4 ± 5.9 µM.

On to `CC(=O)Nc1cccc(NC2=NN=C(c3cc(C)[nH]c3C)CS2)c1` [Compound 10], for which the half-inhibitory concentration (IC50) was found to be 17.3 ± 1.1 µM.

For `CC(C)CCn1c(SCC(=O)NC(N)=O)nc2cc(Cl)ccc2c1=O` [Compound 11], the half-maximal inhibitory concentration (IC50) amounted to 15.6 ± 3.2 µM.

As for `N#Cc1cc(C#N)c(SCc2nnc(-c3cccs3)o2)nc1N` [Compound 12], the IC50 was 21.3 ± 4.6 µM.

With `CC(C)NC(=O)Nc1cccc(C(=O)Nc2ccc3oc(C(F)(F)F)nc3c2)c1` [Compound 13], the IC50 is 14.5 ± 10.7 µM.

Take `Cc1ccc(CN(Cc2ccc(C)n2C)C(=O)COc2ccccc2C#N)n1C` [Compound 15]: the IC50 is 24.4 ± 9.2 µM.

In the case of `Cc1sc2nc(COC(=O)Cn3cc(C(F)(F)F)ccc3=O)nc(N)c2c1C` [Compound 16], the IC50 came to 122 ± 10.7 µM.

Take `O=S(=O)(Nc1ccc(SC(F)F)cc1)c1cnn(-c2ccccc2)c1` [Compound 17]: the IC50 amounted to 77.7 ± 0.3 µM.

On to `CCOC(=O)Cc1ncccc1C(=O)Nc1ccc(Br)c(C(F)(F)F)c1` [Compound 18], for which the IC50 worked out at 57.3 ± 10.1 µM.

As to `O=C(Nc1nc(-c2ccc(Cl)s2)cs1)c1ccc(O)nc1` [Compound 19], the IC50 was found to be 161 ± 13.7 µM.

For `O=C(Nc1cc(Br)cnc1O)c1ccc2ccccc2c1` [Compound 20], the IC50 is 256 ± 20.4 µM.

Regarding `O=C(COC(=O)Cc1ccc(-c2ccccc2)cc1)NC(=O)c1cccs1` [Compound 21], the IC50 worked out at 78.3 ± 9.5 µM.
